Assay [1] deals with HT-29 human colon carcinoma cells. In words: Apoptosis by morphology (acridine orange/ethidium bromide, condensed chromatin). In kind it is cell-based. The following applies: HT-29 cells. The protocol:
Apoptosis was measured using an assay of cell death based on morphological characteristics of apoptotic cells (i.e., condensed chromatin). Drug preparation and cell culture conditions were the same as for the SRB assay described above, except that HT-29 human colon carcinoma cells were employed/Confluent cultures were established in 12.5 cm^2 flasks by plating 0.5×10^6 cells/flask. The cultures were assayed for apoptosis by fluorescent microscopy following labeling with acridine orange and ethidium bromide. Floating and attached cells were collected by trypsinization and washed three times in PBS. One ml aliquots were centrifuged (3 g). The pellet was resuspended in 25 μl media and 1 μl of a dye mixture containing 100 μg/ml acridine orange and 100 μg/ml ethidium bromide prepared in PBS and mixed gently. Ten μl of mixture was placed on a microscope slide and covered with a 22 mm^2 coverslip and examined under 40×dry objectives using epillumination and filter combination.
An observer blinded to the identity of the treatments scored at least 100 cells per sample. Apoptotic cells were identified by nuclear condensation of chromatin stained by the acridine orange or ethidium bromide.

The target of the next assay is T1, COX I (Ovis aries, UniProt P05979).
T1 construct: The COX was purified form ram seminal vesicles; from tissue; host or cells: ram seminal vesicles
T1 sequence (P05979 25-600): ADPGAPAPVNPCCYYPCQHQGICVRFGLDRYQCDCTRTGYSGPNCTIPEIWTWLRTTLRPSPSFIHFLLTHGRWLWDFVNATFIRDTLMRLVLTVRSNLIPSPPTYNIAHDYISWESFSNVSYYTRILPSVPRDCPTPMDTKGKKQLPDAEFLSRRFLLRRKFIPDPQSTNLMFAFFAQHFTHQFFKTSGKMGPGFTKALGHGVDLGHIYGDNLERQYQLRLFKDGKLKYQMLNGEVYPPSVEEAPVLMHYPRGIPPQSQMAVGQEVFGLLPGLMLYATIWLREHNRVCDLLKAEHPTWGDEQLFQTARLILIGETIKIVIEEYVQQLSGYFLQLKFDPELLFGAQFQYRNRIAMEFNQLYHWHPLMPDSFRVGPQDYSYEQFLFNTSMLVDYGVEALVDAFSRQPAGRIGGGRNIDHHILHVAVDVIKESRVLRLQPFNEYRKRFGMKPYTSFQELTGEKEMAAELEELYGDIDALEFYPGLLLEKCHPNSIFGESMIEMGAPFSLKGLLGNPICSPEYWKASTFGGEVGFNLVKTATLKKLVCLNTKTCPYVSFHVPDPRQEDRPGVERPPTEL
Briefly: Cyclooxygenase (COX) inhibition, purified COX. In kind it is biochemical. The following applies: values marked *: 1000 μM test compound; purified COX from ram seminal vesicles. The protocol:
Compounds of this invention, as well as a positive control, sulindac sulfide were to determine whether they inhibited the production of cyclooxygenase (see Table 5 below).
COX catalyzes the formation of prostaglandins and thromboxane by the oxidative metabolism of arachidonic acid. The compounds of this invention were evaluated for inhibitory effects on purified COX. The COX was purified form ram seminal vesicles, as described by Boopathy, R. and Balasubramanian, J. 239:371-377, 1988. COX activity was assayed as described by Evans, A. T., et al., “Actions of cannabis constituents on enzymes of arachidonate metabolism anti-flammatory potential,” Biochem. Pharmacol., 36:2035-2037, 1987. Briefly, purified COX was incubated with arachidonic acid (100 μM) for 2.0 min at 37° C. in the presence or absence of test compounds. The assay was terminated buy the addition of TCA, and COX activity was determined by absorbance at 530 nm.

The subject of assay [2] is human colon carcinoma cell line, SW-480. Briefly: Growth inhibition, Sulforhodamine B (SRB) protein binding assay. To be noted: SW-480 cell line, six days continuous exposure. In kind it is cell-based. The protocol: These compounds were assayed for their growth inhibitory activity on the human colon carcinoma cell line, SW-480 obtained from ATCC (Rockville, Md.), to ascertain the degree of growth inhibition. Growth inhibition of this cell line is indicative of a benefit on precancerous lesions and neoplasms. The cell line and growth assay employed for these experiments are well characterized, and are used to evaluate the anti-neoplastic properties of NSAIDs. The assay is used by the United States National Cancer Institute in its screening program for new anti-cancer drugs.
Drug stock solutions were made in 100% DMSO then diluted with RPMI media for cell culture testing. All drug solutions were prepared fresh on the day of testing. The cultured cells were obtained at passage #99 and grown in RPMI media supplemented with 5% fetal calf serum, and 2 mM glutamine, 100 U/ml penicillin, 100 U/ml streptomycin, and 0.25 μg/ml amphotericin. The cultures were maintained in a humidified atmosphere of 95% air and 5% CO2 at 37° C. The cultures were passaged at preconfluent densities using a solution of 0.05% trypsin and 0.53 mM EDTA. Cells were plated at 1000 cells/well for 96 well flat-bottom microtiter plates.
Tumor cell growth inhibition was assessed using the Sulforhodamine B (SRB) protein binding assay. In this assay, tumor cells were plated in 96-well plates and treated with drug-containing media for six days (continuous exposure). For each plate, 6 wells were designated as no treatment controls, six wells as vehicle (0.1% DMSO) controls, and the remaining wells for drug dilutions with three wells per drug concentration. At the end of the exposure period, the cells were fixed and stained with sulforhodamine B, a protein binding dye. The dye was then solubilized, and the optical density of the resulting solution was determined on a 96-well plate reader. The mean dye intensity of the treated wells was then divided by the mean dye intensity in the control wells (6 wells of each) to determine the effect of the drug on the cells. Dye intensity is proportional to the number of cells or amount of protein per well. The resultant “percent inhibition” value then represents the degree of growth inhibition caused by the drug.
For each experiment, an IC50 value was determined and used for comparative purposes. This value is equivalent to the concentration of drug needed to inhibit tumor cell growth by 50%. IC50 values were obtained graphically by connecting the mean values for each drug concentration tested. Each experiment included at least three wells per drug concentration. Concentration was plotted on a log scale on the X-axis.

Assay [3] has as its system SW-480 colon adenocarcinoma cells. Briefly: Apoptosis by DNA fragmentation (Cell Death Detection ELISA plus). In kind it is cell-based, human. The following applies: SW-480 cells, 48 hrs; for EC50: by software or estimated from effective concentration range; for DNA Fragmentation FS (100 μM): fold stimulation FS=ODmax/ODveh. The protocol:
Apoptosis was also measured based on the amount of fragmented DNA contained in cell lysates. Briefly, SW-480 colon adenocarcinoma cells were plated in 96-well microtitre plates (“MTP”) at a density of 10K cells/well in 180 μl and incubated for 24 hrs. Cells were then treated with 20 μl aliquots of appropriately diluted compound, and allowed to incubate for an additional 48 hrs.
After the incubation, samples were prepared according to the following steps. The MTP was centrifuged (15 min., 1000 rpm) and the supernatant was carefully removed by fast inversion of the MTP. The cell pellents in each well were then resuspended in ^200 μl lysis buffer and incubated for 45 min. at room temperature to lyse the cells. The lysates were then centrifuged (15 min., 1000 rpm) and 20 μl aliquots of the supernatant (=cytoplasmic fraction) were transferred into the streptavidin coated MTP for analysis. Care was taken not to shake the lysed pellets in the MTP (=cell nucleii containing high molecular weight, unfragmented DNA). Samples were analyzed immediately, because storage at 4 C or −20 C reduces the ELISA-signals.
Samples were then processed according to a DNA fragmentation assay protocol, and dose-response curves were generated based on optical density readings. Quantification of DNA was done by a commercially available photometric enzyme-immunoassay manufactured by Mannheim-Boehringer under the name “Cell Death Detection ELISA^plus”. The assay is based on a quantitative sandwich-enzyme-immunoassay-principle using mouse monoclonal antibodies directed against DNA and histones, respectively. This allows the specific determination of mono and oligonucleosomes in the cytoplasmatic fraction of cell lysates. In brief, the assay procedure is as follows. The sample (cell-lysate, serum, culture-supernatant etc.) is placed into a streptavidin-coated MTP. Subsequently, a mixture of anti-histone-biotin and anti-DNA-POD are added and incubated for 2 hours. During the incubation period, the anti-histone antibody binds to the histone-component of the nucleosomes and simultaneously fixes the immunocomplex to the streptavidin-coated MTP via its biotinylation. Additionally, the anti-DNA-POD antibody reacts with the DNA component of the nucleosomes. After removal of unbound antibodies by a washing step, the amount of nucleosomes is quantified by the POD retained in the immunocomplex. POD is determined photometrically with ABTS® (2,2′-Azino-di[3-ethylbenzthiazolin-sulfonat])* as substrate.
Fold stimulation (FS=ODmax/ODveh), an indicator of apoptotic response, was determined for each compound tested. EC50 values were determined either specifically by data analysis software, or by estimates based on the effective concentration range of each compound (ECR=min. effective dose-min. dose to peak effect). These FS and EC50 values for the tested compounds are listed above in Table 6.

Marks after values point to notes of the source that are not given here.

The values that follow come from patent US6403831B1, “Substituted benzylidene indenyl formamides, acetamides and propionamides” (Cell Pathways, Inc., priority 1996, dated 2002).

In general, IC50 refers to the midpoint of a concentration-inhibition curve. A higher IC50 goes with a need for much substance. What is called EC50 is the concentration giving half of the maximal effect.

Consider `CCOC(=O)CN(Cc1ccccc1)C(=O)CC1=C(C)/C(=C/c2cc(OC)c(OC)c(OC)c2)c2ccc(F)cc21` [Example 31, (Z)-5-fluoro-2-methyl-1-(3,4,5 trimethoxybenzylidene)-3-(N-benzyl-N-glycinylethyl ester)-indenylacetamide], for which, in assay [1], the “Morphology % Apoptotic Cells (1 μM)” value is given as 30%. Also, the “COX I % Inhibition (values marked *)” value at COX I is 30* %. For the same compound, the IC50 in assay [2] was 5.2 µM. Further, in assay [3], the EC50 is greater than 10 µM and the “DNA Fragmentation FS (100 μM)” value was less than 2.
In the case of `COc1cc(/C=C2/C(C)=C(CC(=O)NCc3ccccc3F)c3cc(F)ccc32)cc(OC)c1OC` [Example 32, (Z)-5-fluoro-2-methyl-1-(3,4,5-trimethoxybenzylidene)-3-(N-2-fluorobenzyl)-indenylacetamide], the “Morphology % Apoptotic Cells (1 μM)” value in assay [1] turned out to be 55%. The “COX I % Inhibition (values marked *)” value on COX I is on record as 58* %. In assay [2], the IC50 came out at 2.2 µM. Moreover, in assay [3], the EC50 is 0.32 µM and the “DNA Fragmentation FS (100 μM)” value is given as 2.5.
On the same counts, the results for `COc1cc(/C=C2/C(C)=C(CC(=O)NCc3ccccc3Br)c3cc(F)ccc32)cc(OC)c1OC` [Example 33, (Z)-5-fluoro-2-methyl-1-(3,4,5-trimethoxybenzylidene)-3-(N-2-bromobenzyl)-indenylacetamide] are 28%, 49* %, 1.8 µM, 4 µM and 3.7.
`COc1cc(/C=C2/C(C)=C(CC(=O)NCc3ccccc3N)c3cc(F)ccc32)cc(OC)c1OC` [Example 34, (Z)-5-fluoro-2-methyl-1-(3,4,5-trimethoxybenzylidene)-3-(N-2-aminobenzyl)-indenylacetamide]: the “Morphology % Apoptotic Cells (1 μM)” value in assay [1] came to 45%. Besides, the “COX I % Inhibition (values marked *)” value on COX I is given as 31* %. Further, the IC50 in assay [2] amounted to 6.2 µM. For the same compound, in assay [3], the EC50 was greater than 10 µM and the “DNA Fragmentation FS (100 μM)” value was 2.1.
In the same order, the values of `COc1ccc(CN(C(=O)CC2=C(C)/C(=C/c3cc(OC)c(OC)c(OC)c3)c3ccc(F)cc32)c2ccccn2)cc1` [Example 35, (Z)-5-fluoro-2-methyl-1-(3,4,5-trimethoxybenzylidene)-3-(N-4-methoxybenzyl-N-(2-pyridinyl))-indenylacetamide] are 40%, 37* %, greater than 10 µM, greater than 10 µM and less than 2.
On the same counts, the results for `COc1cc(/C=C2/C(C)=C(CC(=O)N(CCN(C)C)Cc3ccccc3)c3cc(F)ccc32)cc(OC)c1OC` [Example 36, (Z)-5-fluoro-2-methyl-1-(3,4,5-trimethoxybenzylidene)-3-(N-benzyl-N-2-dimethylaminoethyl)-indenylacetamide] are 22%, 72* %, 3 µM, 0.01 µM and 5.3.
Turning to `COc1cc(/C=C2/C(C)=C(CC(=O)N(CCC#N)Cc3ccccc3)c3cc(F)ccc32)cc(OC)c1OC` [Example 37, (Z)-5-fluoro-2-methyl-1-(3,4,5-trimethoxybenzylidene)-3-(N-benzyl-N-(2-cyanoethyl))-indenylacetamide], the “Morphology % Apoptotic Cells (1 μM)” value in assay [1] was less than 20%. The “COX I % Inhibition (values marked *)” value on COX I is on record as 38* %. The IC50 in assay [2] was greater than 10 µM. In addition, in assay [3], the EC50 is greater than 10 µM and the “DNA Fragmentation FS (100 μM)” value is given as 2.5.
In the case of `COc1cc(/C=C2/C(C)=C(CC(=O)N(Cc3ccccc3)c3ccccn3)c3cc(F)ccc32)cc(OC)c1OC` [Example 38, (Z)-5-fluoro-2-methyl-1-(3,4,5-trimethoxybenzylidene)-3-(N-benzyl-N-(2-pyridinyl))-indenylacetamide], in assay [1], the “Morphology % Apoptotic Cells (1 μM)” value worked out at 20%. The “COX I % Inhibition (values marked *)” value on COX I is 35* %. Further, the IC50 in assay [2] is greater than 10 µM. In assay [3], the EC50 was greater than 10 µM and the “DNA Fragmentation FS (100 μM)” value was less than 2.
